Consider four compounds from patent publication US5130303A, “Drug effect-enhancing agent for antitumor drug” (Nissan Chemical Industries Ltd., priority 1988, dated 1992).

In brackets after ≈: the same amount, converted by molar mass.

The test system of one experiment is cancer cells. As to conditions: literature; cited from earlier work.
A further experiment has as its system KB-C2. The experiment is described as follows: in vitro chemosensitivity test, MTT colorimetric assay with vincristine (Test Example 1, Table 1). The experiment is classed as cell-based. Particulars: Homo sapiens, KB-C2, 96 h, read-out: IC50 of vincristine without a sample. The method, then: MTT colorimetric assay performed in a 96-well plate was used for an in vitro chemosensitivity test. The assay is dependent on the reduction of MTT by the mitochondrial dehydrogenase of viable cells to a blue formazan product which can be measured spectrophotometrically. Equal numbers of cells (2,000 for KB-3-1 and 5,000 for KB-C2) were inoculated into each well with […] of culture medium. After overnight incubation (37° C., 5% CO2), 20 μl of vincristine solution and 0.5 μl of sample solution were added and incubated for 4 days. Then, 50 μl of MTT (1.1 mg/ml PBS) was added to each well and incubated for further 4 hours. The resulting formazan was dissolved with 100 μl of DMSO after aspiration of the culture medium. Plates were placed on a plate shaker for 5 minutes and read immediately at 570 nm. IC50 (mg/ml) with a tested sample 10 μM is given in Table 1; and IC50 of vincristine without a sample was 5,000 ng/ml.
MTT: 3-(4,5-dimethylthiazol-2-yl)-2,5-diphenyltetrazolium bromide
MEM: minimum essential medium
In general terms: Tetrazolium assays rely on reduction of a dye to a coloured formazan, in cell work by metabolically active cells.

Regarding `COc1ccc([C@@H]2Sc3ccccc3N(CCN(C)C)C(=O)[C@@H]2OC(C)=O)cc1` [diltiazem], the “effect on multidrug resistance / antitumor drug effects” value in the experiment on cancer cells is “enhances the drug effects of vincristine (VCR)”.

For `COC(=O)C1=C(C)NC(C)=C(C(=O)OCCN(C)Cc2ccccc2)C1c1cccc([N+](=O)[O-])c1` (stereo not shown) [nicardipin], the “effect on multidrug resistance / antitumor drug effects” value with cancer cells is reported as “enhances the antitumor activities of vindecine sulfate”.

`COc1ccc(CCN(C)CCCC(C#N)(c2ccc(OC)c(OC)c2)C(C)C)cc1OC` (stereo not shown) [Verapamil]: the “effect on multidrug resistance / antitumor drug effects” value in the experiment with cancer cells was “overcomes the multidrug resistance against antitumor drugs”.

What is called IC50 is the point on the concentration scale where inhibition reaches its midpoint. For `CC[C@]1(O)C[C@H]2CN(CCc3c([nH]c4ccccc34)[C@@](C(=O)OC)(c3cc4c(cc3OC)N(C=O)[C@H]3[C@@](O)(C(=O)OC)[C@H](OC(C)=O)[C@]5(CC)C=CCN6CC[C@]43[C@@H]65)C2)C1` [vincristine], in the experiment with KB-C2, the concentration for half-maximal inhibition (IC50) stood at 5 µg/mL (≈ 6.06 µM).
